Measurements: patent US20260365662A1, “ISOANDROGRAPHOLIDE ANALOGS AND METHOD FOR TREATMENT USING THE SAME” (Enveda Therapeutics, Inc., priority 2023, published 2026)

Test system: female BALB/c mouse
Assay: MC-903 induced atopic dermatitis model, prophylactic (Example 12)
Type: in vivo
Conditions: for immune cell infiltration: histopathology, back skin; for IL-31 expression: itch marker
Protocol: Experimental details: Preclinical animal model of atopic dermatitis was developed by MC-903, a vitamin-D analogue. In the current study, the test item Compound 2 was screened to evaluate its efficacy in MC-903 induced AD model. 2 nmol of MC-903 was topically applied to 8-10 weeks old female BALB/c mouse from G2-G7 group at a volume of 50 μl/mouse on back skin on every alternate day for 14 days to induced disease. For the G1 group, (Normal+ethanol control) the same volume of ethanol that was used to solubilize MC-903 was applied. Clobetasol (0.05%, 20 mg) was applied topically once a day to G3 group animals. Compound 2 was administered twice a day to respective treatment groups (G4-G7) for 14 days. On the day of MC-903 administration, test compounds were dosed one hour prior to MC-903 insult. Clinical scores to assess the disease intensity were measured from visual examination for erythema, scaling and back skin thickness using dial caliper. All the scores were carried by blinded observers to treatment groups. Cumulative dermatitis severity scores were calculated by adding up the individual scores of erythema, scaling & thickness. On day-14 of the study, all animals were terminally bled under mild anesthesia followed by humane sacrifice and back skin tissue was dissected. Required skin tissue samples were collected in fixative and part of the tissue was flash-frozen in liquid nitrogen and stored at −80 °C. Collected tissue samples were processed and used for biomarker analysis using gene and protein expression analysis by qPCR & ELISA, pharmacokinetic analysis by LC-MS and histopathology studies.

[1] = twice a day, 14 days, vs MC-903 vehicle control

C[C@@]12CCC(=O)N[C@@](C)(CO)[C@H]1CC[C@@]1(C)O[C@H](C3=CCOC3=O)C[C@@H]21 [Compound 2, (2S,3aR,5aS,6R,10aR,10bS)-6-(hydroxymethyl)-3a,6,10a-trimethyl-2-(2-oxo-2,5-dihydrofuran-3-yl) dodecahydro-8H-benzofuro[5,4-c]azepin-8-one]
neutrophil infiltration (FIG. 12C): robustly reduces | early barrier alarmins in skin (FIG. 12G): reduces early barrier alarmins | tissue cytokine expression (FIG. 12H): impacts tissue cytokine expression | improvement of MC-903-induced atopic dermatitis (compared with high-potency topical corticosteroids): comparable to high-potency topical corticosteroids | immune cell infiltration: significantly reduced | immune cell infiltration (listed as compound 2): reduced dose-dependent immune cell infiltration | histopathological changes and final histopathology scores (hyperkeratosis, parakeratosis, lengthening and clubbing of rete ridges, vs MC-903 vehicle control): significantly reduced | IL-31 expression (prophylactic, back skin tissue): significantly reduced | IL-31 expression (prophylactic, back skin tissue, listed as compound 2): decreases IL-31 expression | NGAL levels (neutrophil marker, back skin tissue): significantly reduced | NGAL levels (neutrophil marker, back skin tissue, listed as compound 2): significantly reduces NGAL levels | Lipocalin-2 expression (neutrophil marker, prophylactic, back skin tissue): significantly reduced | IL-4 expression (prophylactic, back skin tissue): significantly reduced | IL-13 expression (prophylactic, back skin tissue): significantly reduced | Krt6a expression (prophylactic, back skin tissue): significantly reduced | Tissue TSLP expression (prophylactic, back skin tissue): significantly reduced | dermatitis severity scores [1]: dose dependent decrease | epidermal thickness [1]: significantly reduced | epidermal thickness (twice a day, 14 days, vs MC-903 vehicle control, listed as compound 2): robustly reduces epidermal thickness
